# Measurements as given in patent publication US5317024A, “Ether derivatives of alkyl piperidines and pyrrolidines as antipsychotic agents” (DuPont Merck Pharmaceutical Co., priority 1993, dated 1994).
# pKi: −log10 of the molar value. Counter-ions that a name gives are not always drawn. Like-named read-outs stand apart in the source and are kept apart here.
# Assays:
# sigma receptor = sigma receptor (Cavia porcellus, UniProt Q60492); test: biochemical; conditions: 1 nM (+)-[3H]SKF 10,047, guinea pig brain membranes, pH 7.4, 45 min, room temperature; read-out: SIGMA receptor binding Ki
# sigma receptor, sequence (Q60492 whole entry): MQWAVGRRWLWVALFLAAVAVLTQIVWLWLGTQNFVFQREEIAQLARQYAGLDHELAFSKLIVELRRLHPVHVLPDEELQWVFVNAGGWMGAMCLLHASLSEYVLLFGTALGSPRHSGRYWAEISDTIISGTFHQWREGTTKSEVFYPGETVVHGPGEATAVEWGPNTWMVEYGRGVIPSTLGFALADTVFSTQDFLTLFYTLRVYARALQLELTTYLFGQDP
# Description: (§1) Male Hartley guinea pigs (250-300 g, Charles River) were sacrificed by decapitation. […] Whole brains were homogenized (20 seconds) in 10 vol (wt/vol) of ice-cold 0.34 M sucrose with a Brinkmann Polytron (setting 8). The homogenate was centrifuged at 920 × g for 10 minutes. The supernatant was centrifuged at 47,000 × g for 20 minutes. The resulting membrane pellet was resuspended in 10 vol (original wt/vol) of 50 mM Tris HCl (pH 7.4) and incubated at 37° C. for 45 minutes to degrade and dissociate bound endogenous ligands. The membranes were then centrifuged at 47,000 × g for 20 minutes and resuspended in 50 mM Tris HCl (50 mL per brain).
# After 45 minutes of incubation at room temperature, samples were filtered rapidly through Whatman GF/C. glass filters under negative pressure, and washed 3 times with ice-cold Tris buffer (5 mL).
# IC50 s were calculated from log-logit plots. Apparent Ki s were calculated from the equation, Ki = IC50 /[1+(L/Kd)] (4), where L is the concentration of radio ligand and Kd is its dissociation constant.
# dopamine D-2 receptor = target: T1, dopamine D-2 receptor (Cavia porcellus, UniProt H0VE83); test: Dopamine Receptor Binding ([3H]spiperone, striatum membranes); design: species or system guinea pig
# T1 construct: Membranes were prepared from guinea pig striatum; from tissue; host or cells: guinea pig striatum membranes
# T1 sequence (H0VE83 1-446): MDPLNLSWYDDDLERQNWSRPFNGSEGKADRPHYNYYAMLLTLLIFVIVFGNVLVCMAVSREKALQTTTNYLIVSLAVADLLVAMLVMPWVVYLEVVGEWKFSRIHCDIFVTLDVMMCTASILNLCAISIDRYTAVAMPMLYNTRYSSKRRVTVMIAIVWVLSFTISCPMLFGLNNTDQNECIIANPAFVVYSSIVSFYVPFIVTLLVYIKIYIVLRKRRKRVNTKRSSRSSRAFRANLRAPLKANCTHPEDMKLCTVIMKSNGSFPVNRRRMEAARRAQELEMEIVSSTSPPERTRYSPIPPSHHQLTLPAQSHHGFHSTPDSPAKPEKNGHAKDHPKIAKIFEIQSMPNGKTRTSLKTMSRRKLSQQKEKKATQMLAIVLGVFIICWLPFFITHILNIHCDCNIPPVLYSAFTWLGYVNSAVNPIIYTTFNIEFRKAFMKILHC
# Description: as §1
# Membranes were prepared from guinea pig striatum by the method described for sigma receptor binding. The membranes were then resuspended in 50 mM Tris HCl (9 mL per brain).
# Nonspecific binding was measured in the presence of 100 nM (+)-butaclamol.After 15 minutes of incubation at 37° C., samples were filtered rapidly through Whatman GF/C glass filters under negative pressure, and washed three times with ice-cold binding buffer (5 mL).
# IC50 s were calculated from log-logit plots.
# [1] = Isolation-Induced Aggression in Mice; type: in vivo, Male Balb/c mice; conditions: oral; for ED50: Mus musculus, 0.25 h, 15 min after dosing, isolated male Balb/c mice, read-out: Inhibition of Isolation-induced Aggression ED50; for inhibiting isolation-induced aggressive behavior (in words): mice, summary of Table 5
# Description: Male Balb/c mice (Charles River) were used. […] Isolated mice failing to consistently attack an intruder were eliminated from the colony. Drug testing was carried out by treating the isolated mice with test drugs or standards. Fifteen minutes after dosing with test drugs by the oral route, one isolated mouse was removed from its home cage and placed in the home cage of another isolate. Scoring was a yes or no response for each pair. A maximum of 3 minutes was allowed for an attack and the pair was separated immediately upon an attack. Selection of home cage and intruder mice was randomized for each test. Mice were treated and tested twice a week with at least a 2 day washout period between treatments.
# [2] = 0.15 nM [3H]spiperone, guinea pig striatum membranes, pH 7.7, 15 min, 37° C., read-out: DOPAMINE D-2 receptor binding Ki
pKi (sigma receptor),pKi (dopamine D-2 receptor; [2]),Structure (SMILES),pKi (dopamine D-2 receptor),ED50 [1] [mg/kg],inhibiting isolation-induced aggressive behavior (in words) [1]
7.52 to 9.00,< 6.30,C(=C\c1ccccc1)/COCC1CCN(Cc2ccc3ccccc3c2)CC1 [Example 26],–,–,–
7.52 to 9.00,< 6.30,C(=C\c1ccccc1)/COC[C@@H]1CCCN1Cc1ccccc1 [Example 38],–,–,–
7.00 to 7.51,< 6.30,"C(=C/c1ccccc1)/COCCC1CCN(Cc2ccccc2)CC1 [Example 42, (Z)-1-Benzyl-4[(3-phenyl-2-propenyloxy)ethyl]piperidine]",–,–,–
7.52 to 9.00,< 6.30,"C(=C\c1ccccc1)/COCC1CCN(CCCc2ccccc2)CC1 [Example 30, (E)-1-(3-phenyl)propyl-4-[(3-phenyl-2-propenyloxy)methyl]piperidine, hydrochloride salt]",–,–,–
7.52 to 9.00,< 6.30,C(=C\c1ccccc1)/COC1CCN(Cc2ccccc2)CC1 [Example 31],–,–,–
–,–,"O=C(CCCN1CCC(O)(c2ccc(Cl)cc2)CC1)c1ccc(F)cc1 [Haloperidol, reference compound]",–,< 10,effective
7.52 to 9.00,< 6.30,CCCCCCN1CCC(COC/C=C/c2ccccc2)CC1 [Example 36],–,–,–
7.52 to 9.00,< 6.30,C(#Cc1ccccc1)COCCC1CCN(Cc2ccccc2)CC1 [Example 40],–,–,–
7.52 to 9.00,< 6.30,C(=C\c1ccccc1)/COC1CCN(Cc2ccccc2)C1 (centres unmarked) [Example 32],–,–,–
7.52 to 9.00,6.30 to 7.00,"C(=C\c1ccccc1)/COCC1CCN(CCc2ccccc2)CC1 [Example 25, (E)-1-phenethyl-4-[(3-phenyl-2-propenyloxy)methyl] piperidine, hydrochloride salt]",–,21 to 70,effective
7.52 to 9.00,< 6.30,C(=C\c1ccccc1)/COC[C@H]1CCCN1Cc1ccccc1 [Example 37],–,–,–
7.52 to 9.00,< 6.30,"C(=C\c1ccccc1)/COCC1CCN(Cc2ccccc2)CC1.Cl [Example 21, (E)-1-Benzyl-4-[(3-phenyl-2-propenyloxy)methyl]piperidine hydrochloride]",–,21 to 70,effective
7.52 to 9.00,< 6.30,C(=C\c1ccccc1)/COCC1CCCN(Cc2ccccc2)C1 (centres unmarked) [Example 27],–,–,–
7.52 to 9.00,< 6.30,"C(=C\c1ccccc1)/COCCC1CCN(Cc2ccccc2)CC1 [Example 41, (E)-1Benzyl-4-[(3-phenyl-2-propenyloxy)lethyl]piperidine, maleic acid salt]",–,–,–
7.52 to 9.00,6.30 to 7.00,"C(#Cc1ccccc1)COCCC1CCN(CCc2ccccc2)CC1 [Example 39, 1-Phenethyl-4-(3-phenyl-2-propynyloxy)ethyl] piperidine, hydrochloride salt]",–,–,–
7.52 to 9.00,< 6.30,"Fc1ccc(/C=C/COCC2CCN(Cc3ccccc3)CC2)cc1 [Example 22, (E)-1-benzyl-4-{[3-(4-fluoro)phenyl-2-propenyloxy]methyl} piperidine, hydrochloride salt]",–,–,–
7.52 to 9.00,< 6.30,C(=C\c1ccccc1)/COCC1CCN(CC2CC2)CC1 [Example 23],–,–,–
7.52 to 9.00,< 6.30,C(=C\c1ccccc1)/COCC1CCCCN1Cc1ccccc1 (centres unmarked) [Example 28],–,–,–
7.52 to 9.00,< 6.30,"FC(F)(F)c1ccc(/C=C/COCC2CCN(Cc3ccccc3)CC2)cc1 [Example 35, (E)-1-benzyl-4-{[3-(4-trifluoromethyl)phenyl-2-propenyloxy]methyl}piperidine, maleic acid salt]",–,–,–
7.00 to 7.51,< 6.30,C(=C\c1ccccc1)/COCC1CCN(Cc2cccc3ccccc23)CC1 [Example 33],–,–,–
7.52 to 9.00,< 6.30,CC(C)=CCN1CCC(COC/C=C/c2ccccc2)CC1 [Example 29],–,–,–
7.52 to 9.00,< 6.30,C(=C\c1ccccc1)/COCCC1CCCCN1Cc1ccccc1 (centres unmarked) [Example 24],–,–,–

Structure (SMILES),pKi (sigma receptor),pKi (dopamine D-2 receptor; [2]),pKi (dopamine D-2 receptor),ED50 [1] [mg/kg],inhibiting isolation-induced aggressive behavior (in words) [1]
C(COCC1CCN(Cc2ccccc2)CC1)=C(c1ccccc1)c1ccccc1 [Example 34],7.52 to 9.00,–,< 6.30,–,–
